Measured values as given in ChEMBL document CHEMBL3991601, “The target landscape of clinical kinase drugs” (Science, 2017).
Calls of active or inactive are those of the source.

Experiments:
[1] = biological target: Cyclin-dependent kinase 10 (Homo sapiens, UniProt Q15131)
[2] = biological target: Activin receptor type-1-like (Homo sapiens, UniProt P37023)
[3] = biological target: Actin-related protein 3 (Homo sapiens, UniProt P61158)
[4] = biological target: 5'-AMP-activated protein kinase subunit gamma-1 (Homo sapiens, UniProt P54619)
[5] = biological target: Dual specificity tyrosine-phosphorylation-regulated kinase 1B (Homo sapiens, UniProt Q9Y463)
[6] = biological target: Eukaryotic peptide chain release factor GTP-binding subunit ERF3B (Homo sapiens, UniProt Q8IYD1)
[7] = biological target: Cyclin-dependent kinase 18 (Homo sapiens, UniProt Q07002)
[8] = biological target: T1, Tyrosine-protein kinase Mer (Homo sapiens, UniProt Q12866)
T1 sequence (Q12866 whole entry): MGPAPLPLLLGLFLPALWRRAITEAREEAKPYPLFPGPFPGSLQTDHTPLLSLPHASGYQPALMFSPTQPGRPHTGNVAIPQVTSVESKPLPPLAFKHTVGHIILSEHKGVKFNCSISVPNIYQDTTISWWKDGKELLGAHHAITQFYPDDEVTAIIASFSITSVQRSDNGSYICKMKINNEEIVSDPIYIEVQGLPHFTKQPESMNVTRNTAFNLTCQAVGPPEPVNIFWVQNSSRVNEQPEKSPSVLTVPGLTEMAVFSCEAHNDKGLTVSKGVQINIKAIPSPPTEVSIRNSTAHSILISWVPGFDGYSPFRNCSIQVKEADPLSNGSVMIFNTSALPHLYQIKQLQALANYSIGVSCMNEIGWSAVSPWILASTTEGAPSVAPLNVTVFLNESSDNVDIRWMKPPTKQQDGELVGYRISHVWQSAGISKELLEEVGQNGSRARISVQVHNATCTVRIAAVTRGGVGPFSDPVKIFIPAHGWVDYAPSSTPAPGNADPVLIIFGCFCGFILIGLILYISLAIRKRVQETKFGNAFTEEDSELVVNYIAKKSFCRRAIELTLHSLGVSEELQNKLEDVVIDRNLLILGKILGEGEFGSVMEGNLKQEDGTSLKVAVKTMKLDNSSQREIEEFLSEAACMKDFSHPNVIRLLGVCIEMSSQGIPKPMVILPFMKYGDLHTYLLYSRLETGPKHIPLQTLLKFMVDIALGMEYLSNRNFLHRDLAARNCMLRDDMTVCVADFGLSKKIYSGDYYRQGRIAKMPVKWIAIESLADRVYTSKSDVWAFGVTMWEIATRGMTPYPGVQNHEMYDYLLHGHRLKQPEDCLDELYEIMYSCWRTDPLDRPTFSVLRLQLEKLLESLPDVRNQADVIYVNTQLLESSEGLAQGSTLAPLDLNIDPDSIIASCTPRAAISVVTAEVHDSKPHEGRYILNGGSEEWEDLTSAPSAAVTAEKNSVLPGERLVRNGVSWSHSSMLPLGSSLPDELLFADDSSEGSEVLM

[9] = biological target: Mast/stem cell growth factor receptor Kit (Homo sapiens, UniProt P10721)
[10] = biological target: T2, General transcription and DNA repair factor IIH helicase subunit XPD (Homo sapiens, UniProt P18074)
T2 sequence (P18074 whole entry): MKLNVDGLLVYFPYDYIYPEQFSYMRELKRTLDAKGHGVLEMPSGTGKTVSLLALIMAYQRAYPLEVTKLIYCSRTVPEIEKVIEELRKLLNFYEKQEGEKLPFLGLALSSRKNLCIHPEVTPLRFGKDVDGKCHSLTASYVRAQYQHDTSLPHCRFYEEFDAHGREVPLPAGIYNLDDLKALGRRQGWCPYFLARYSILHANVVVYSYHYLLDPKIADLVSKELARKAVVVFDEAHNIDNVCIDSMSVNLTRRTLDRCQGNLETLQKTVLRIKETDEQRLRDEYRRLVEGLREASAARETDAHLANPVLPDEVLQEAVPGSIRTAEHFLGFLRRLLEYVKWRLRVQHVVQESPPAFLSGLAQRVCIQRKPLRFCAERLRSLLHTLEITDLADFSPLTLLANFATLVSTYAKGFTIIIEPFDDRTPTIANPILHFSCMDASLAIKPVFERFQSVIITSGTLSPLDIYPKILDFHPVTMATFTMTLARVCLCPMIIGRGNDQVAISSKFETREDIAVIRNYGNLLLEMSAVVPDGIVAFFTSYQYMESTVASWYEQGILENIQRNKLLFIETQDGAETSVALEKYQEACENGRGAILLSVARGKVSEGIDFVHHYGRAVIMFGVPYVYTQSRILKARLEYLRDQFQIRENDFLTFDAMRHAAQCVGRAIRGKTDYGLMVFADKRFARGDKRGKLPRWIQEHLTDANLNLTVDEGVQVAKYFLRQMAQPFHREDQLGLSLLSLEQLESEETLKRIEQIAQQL

[11] = biological target: Serine/threonine-protein kinase 38 (Homo sapiens, UniProt Q15208)
[12] = biological target: Ras-related C3 botulinum toxin substrate 1 (Homo sapiens, UniProt P63000)
[13] = biological target: ALK tyrosine kinase receptor (Homo sapiens, UniProt Q9UM73); format: subcellular, K-562, COLO 205, SK-N-BE(2) and MV-4-11, Cell lysate; conditions: read-out: Kd apparent
[14] = biological target: Nucleoside diphosphate kinase B (Homo sapiens, UniProt P22392)
[15] = biological target: Cyclin-dependent kinase 9 (Homo sapiens, UniProt P50750)
[16] = biological target: Tyrosine-protein kinase JAK2 (Homo sapiens, UniProt O60674)
[17] = biological target: Tyrosine-protein kinase Fgr (Homo sapiens, UniProt P09769)
Further: in the data inactive means no Kd found up to 30 µM.

Chain of Mast/stem cell growth factor receptor Kit (P10721 whole entry): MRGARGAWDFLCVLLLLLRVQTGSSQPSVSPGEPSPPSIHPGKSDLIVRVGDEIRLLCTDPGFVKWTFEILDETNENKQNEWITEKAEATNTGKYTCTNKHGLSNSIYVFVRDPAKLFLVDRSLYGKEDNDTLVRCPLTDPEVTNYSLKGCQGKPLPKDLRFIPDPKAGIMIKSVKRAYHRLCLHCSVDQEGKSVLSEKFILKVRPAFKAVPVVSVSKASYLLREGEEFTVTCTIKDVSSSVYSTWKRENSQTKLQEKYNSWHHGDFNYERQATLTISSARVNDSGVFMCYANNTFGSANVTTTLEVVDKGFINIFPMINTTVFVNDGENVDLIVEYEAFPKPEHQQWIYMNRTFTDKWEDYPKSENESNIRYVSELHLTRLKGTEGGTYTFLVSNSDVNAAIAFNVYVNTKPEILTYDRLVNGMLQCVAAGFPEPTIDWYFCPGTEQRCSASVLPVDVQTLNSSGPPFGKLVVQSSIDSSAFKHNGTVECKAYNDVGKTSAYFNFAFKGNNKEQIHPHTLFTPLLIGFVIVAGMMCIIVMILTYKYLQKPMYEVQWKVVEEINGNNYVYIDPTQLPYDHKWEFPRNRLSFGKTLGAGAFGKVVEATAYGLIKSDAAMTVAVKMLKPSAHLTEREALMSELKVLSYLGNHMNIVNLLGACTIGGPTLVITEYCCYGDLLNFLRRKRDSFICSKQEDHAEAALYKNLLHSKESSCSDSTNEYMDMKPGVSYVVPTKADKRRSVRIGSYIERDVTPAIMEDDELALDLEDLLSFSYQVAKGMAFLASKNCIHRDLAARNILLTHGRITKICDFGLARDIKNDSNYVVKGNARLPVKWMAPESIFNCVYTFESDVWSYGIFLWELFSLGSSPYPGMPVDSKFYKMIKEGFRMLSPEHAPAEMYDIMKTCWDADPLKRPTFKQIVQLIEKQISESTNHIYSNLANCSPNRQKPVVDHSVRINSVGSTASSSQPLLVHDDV
Chain of Cyclin-dependent kinase 18 (Q07002 whole entry): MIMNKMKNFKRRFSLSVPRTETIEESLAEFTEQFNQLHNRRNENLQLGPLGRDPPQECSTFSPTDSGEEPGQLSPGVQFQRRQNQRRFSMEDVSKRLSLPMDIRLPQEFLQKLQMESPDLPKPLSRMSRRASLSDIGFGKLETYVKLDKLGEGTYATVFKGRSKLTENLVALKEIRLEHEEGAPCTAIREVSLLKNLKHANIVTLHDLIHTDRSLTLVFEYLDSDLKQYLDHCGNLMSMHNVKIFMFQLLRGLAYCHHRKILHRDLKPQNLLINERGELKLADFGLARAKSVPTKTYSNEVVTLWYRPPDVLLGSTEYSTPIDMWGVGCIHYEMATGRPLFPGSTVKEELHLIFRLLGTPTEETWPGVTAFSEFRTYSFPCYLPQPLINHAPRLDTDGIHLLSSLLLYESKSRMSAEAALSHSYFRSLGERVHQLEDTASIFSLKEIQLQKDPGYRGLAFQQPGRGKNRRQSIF
Chain of Cyclin-dependent kinase 10 (Q15131 whole entry): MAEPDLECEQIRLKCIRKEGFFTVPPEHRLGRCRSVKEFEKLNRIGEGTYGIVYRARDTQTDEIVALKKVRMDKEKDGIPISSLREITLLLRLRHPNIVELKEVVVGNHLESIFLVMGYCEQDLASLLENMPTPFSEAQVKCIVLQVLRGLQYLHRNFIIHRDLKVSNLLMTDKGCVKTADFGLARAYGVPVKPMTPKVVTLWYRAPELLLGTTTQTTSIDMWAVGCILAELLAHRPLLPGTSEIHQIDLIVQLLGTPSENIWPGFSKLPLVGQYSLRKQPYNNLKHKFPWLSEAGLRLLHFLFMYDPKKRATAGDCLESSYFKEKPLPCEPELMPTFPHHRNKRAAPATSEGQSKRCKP
Chain of Dual specificity tyrosine-phosphorylation-regulated kinase 1B (Q9Y463 whole entry): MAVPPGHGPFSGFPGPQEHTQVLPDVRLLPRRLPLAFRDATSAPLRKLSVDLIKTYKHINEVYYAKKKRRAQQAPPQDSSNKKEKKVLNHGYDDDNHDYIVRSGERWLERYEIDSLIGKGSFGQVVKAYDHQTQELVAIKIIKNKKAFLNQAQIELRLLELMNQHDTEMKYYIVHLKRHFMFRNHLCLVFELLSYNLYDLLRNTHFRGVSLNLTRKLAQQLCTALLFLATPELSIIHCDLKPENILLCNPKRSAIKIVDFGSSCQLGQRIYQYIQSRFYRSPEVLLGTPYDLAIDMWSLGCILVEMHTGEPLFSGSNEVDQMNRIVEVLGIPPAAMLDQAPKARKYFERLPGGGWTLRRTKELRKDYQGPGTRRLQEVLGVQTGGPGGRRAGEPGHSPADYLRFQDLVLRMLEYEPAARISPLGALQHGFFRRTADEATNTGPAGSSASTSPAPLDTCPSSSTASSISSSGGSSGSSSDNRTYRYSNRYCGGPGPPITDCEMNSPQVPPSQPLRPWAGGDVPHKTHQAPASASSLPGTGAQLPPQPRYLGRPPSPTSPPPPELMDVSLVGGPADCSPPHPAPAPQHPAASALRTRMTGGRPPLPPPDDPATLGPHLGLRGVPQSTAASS
Chain of Serine/threonine-protein kinase 38 (Q15208 whole entry): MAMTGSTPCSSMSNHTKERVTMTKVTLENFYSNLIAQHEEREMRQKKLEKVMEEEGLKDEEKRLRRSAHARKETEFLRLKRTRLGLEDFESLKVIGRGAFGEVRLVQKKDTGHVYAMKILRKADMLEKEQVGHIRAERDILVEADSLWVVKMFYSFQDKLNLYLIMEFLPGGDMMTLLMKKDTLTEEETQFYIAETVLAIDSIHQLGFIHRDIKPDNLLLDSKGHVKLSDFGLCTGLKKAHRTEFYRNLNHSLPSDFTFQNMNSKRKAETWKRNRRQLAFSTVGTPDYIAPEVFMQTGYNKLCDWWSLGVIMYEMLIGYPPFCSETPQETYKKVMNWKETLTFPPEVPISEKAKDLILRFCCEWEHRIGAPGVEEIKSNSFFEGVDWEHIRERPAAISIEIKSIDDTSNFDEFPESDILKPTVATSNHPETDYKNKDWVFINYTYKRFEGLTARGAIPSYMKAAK
Chain of ALK tyrosine kinase receptor (Q9UM73 whole entry): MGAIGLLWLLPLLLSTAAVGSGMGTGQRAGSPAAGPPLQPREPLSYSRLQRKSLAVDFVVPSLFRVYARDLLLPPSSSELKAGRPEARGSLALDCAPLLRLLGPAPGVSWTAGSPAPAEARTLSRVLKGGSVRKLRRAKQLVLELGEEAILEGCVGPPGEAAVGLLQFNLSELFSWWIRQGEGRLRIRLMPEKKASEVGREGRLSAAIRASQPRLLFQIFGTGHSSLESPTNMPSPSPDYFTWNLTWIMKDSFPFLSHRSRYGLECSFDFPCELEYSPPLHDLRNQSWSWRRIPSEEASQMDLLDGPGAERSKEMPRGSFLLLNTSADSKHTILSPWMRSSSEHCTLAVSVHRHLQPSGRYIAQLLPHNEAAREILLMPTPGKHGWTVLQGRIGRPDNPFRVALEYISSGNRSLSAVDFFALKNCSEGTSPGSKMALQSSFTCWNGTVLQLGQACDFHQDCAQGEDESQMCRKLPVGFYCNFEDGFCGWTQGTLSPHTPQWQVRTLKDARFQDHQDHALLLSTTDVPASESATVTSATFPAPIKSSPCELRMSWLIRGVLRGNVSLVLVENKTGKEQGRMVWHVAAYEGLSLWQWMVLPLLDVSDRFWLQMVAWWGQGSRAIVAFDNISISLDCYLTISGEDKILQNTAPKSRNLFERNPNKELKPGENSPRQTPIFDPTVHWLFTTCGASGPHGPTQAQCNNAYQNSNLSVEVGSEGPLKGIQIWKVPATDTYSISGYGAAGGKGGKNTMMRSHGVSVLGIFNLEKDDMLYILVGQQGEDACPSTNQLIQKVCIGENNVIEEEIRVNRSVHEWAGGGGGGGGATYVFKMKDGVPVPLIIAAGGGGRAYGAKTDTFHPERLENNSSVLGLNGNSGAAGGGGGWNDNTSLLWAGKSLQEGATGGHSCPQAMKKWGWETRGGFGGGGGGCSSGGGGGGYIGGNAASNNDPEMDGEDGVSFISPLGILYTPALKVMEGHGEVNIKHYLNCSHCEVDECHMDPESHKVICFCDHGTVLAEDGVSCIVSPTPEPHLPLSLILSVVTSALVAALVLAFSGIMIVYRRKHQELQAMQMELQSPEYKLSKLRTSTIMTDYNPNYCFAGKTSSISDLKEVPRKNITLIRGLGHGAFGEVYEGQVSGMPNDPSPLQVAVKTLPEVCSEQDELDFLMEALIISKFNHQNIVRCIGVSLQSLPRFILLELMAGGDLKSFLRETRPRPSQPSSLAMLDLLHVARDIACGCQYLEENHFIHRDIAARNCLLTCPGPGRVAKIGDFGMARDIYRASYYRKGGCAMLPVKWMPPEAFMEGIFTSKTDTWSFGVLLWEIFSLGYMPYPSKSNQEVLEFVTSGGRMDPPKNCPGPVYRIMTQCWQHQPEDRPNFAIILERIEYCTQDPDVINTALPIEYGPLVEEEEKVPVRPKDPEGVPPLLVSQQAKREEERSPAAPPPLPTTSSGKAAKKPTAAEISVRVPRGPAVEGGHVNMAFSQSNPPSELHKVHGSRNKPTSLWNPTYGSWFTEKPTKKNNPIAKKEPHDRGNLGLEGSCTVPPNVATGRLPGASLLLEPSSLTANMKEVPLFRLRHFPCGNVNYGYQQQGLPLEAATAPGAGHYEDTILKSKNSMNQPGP
Chain of Cyclin-dependent kinase 9 (P50750 whole entry): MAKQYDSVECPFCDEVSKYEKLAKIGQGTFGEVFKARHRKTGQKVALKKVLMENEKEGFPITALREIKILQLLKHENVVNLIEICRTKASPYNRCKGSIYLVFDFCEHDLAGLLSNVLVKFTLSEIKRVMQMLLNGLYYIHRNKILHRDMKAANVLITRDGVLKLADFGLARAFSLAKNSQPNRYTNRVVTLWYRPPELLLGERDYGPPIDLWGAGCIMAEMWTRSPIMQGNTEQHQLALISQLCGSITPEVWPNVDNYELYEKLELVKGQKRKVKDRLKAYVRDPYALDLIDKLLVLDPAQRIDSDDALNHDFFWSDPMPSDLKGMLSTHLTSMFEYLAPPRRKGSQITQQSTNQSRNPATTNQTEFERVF
Chain of Nucleoside diphosphate kinase B (P22392 whole entry): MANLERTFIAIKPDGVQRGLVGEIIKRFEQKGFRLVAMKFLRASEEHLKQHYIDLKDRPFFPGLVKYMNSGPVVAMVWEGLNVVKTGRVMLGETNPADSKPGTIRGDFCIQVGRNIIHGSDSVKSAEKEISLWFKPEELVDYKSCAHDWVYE

| Compound | Kd [1] | Kd [6] | Kd [7] | Kd [8] | Kd [9] | Kd [11] | Kd [13] | further results |
| --- | --- | --- | --- | --- | --- | --- | --- | --- |
| NC(=O)Nc1cc(-c2cccc(F)c2)sc1C(=O)N[C@H]1CCCNC1 [AZD-7762] | > 30 µM (inactive) |  |  |  |  |  |  | Kd [2]: > 30 µM (inactive); Kd [3]: > 30 µM (inactive) |
| COc1c(OCCCN2CCOCC2)ccc2c1N=C(NC(=O)c1cnc(N)nc1)N1CCN=C21 [COPANLISIB] |  | > 30 µM (inactive) | > 30 µM (inactive) | > 30 µM (inactive) | > 30 µM (inactive) | > 30 µM (inactive) |  | Kd [4]: > 30 µM (inactive); Kd [5]: > 30 µM (inactive); Kd [10]: > 30 µM (inactive) |
| O=C(Nc1nc2cccc(-c3ccc(CN4CCS(=O)(=O)CC4)cc3)n2n1)C1CC1 [FILGOTINIB] |  |  |  |  |  |  | > 30 µM (inactive) | Kd [12]: > 30 µM (inactive); Kd [4]: > 30 µM (inactive); Kd [10]: > 30 µM (inactive) |
| COc1ncc(-c2ccc3nccc(-c4ccnnc4)c3c2)cc1NS(=O)(=O)c1ccc(F)cc1F [OMIPALISIB] |  |  |  |  | > 30 µM (inactive) | > 30 µM (inactive) | > 30 µM (inactive) | Kd [14]: > 30 µM (inactive) |
| CCCCCCCCCCCCCCCCCCOP(=O)([O-])OC1CC[N+](C)(C)CC1 [PERIFOSINE] |  |  |  |  |  |  |  | Kd [12]: > 30 µM (inactive) |
| CO[C@H]1C[C@@H]2CC[C@@H](C)[C@@](O)(O2)C(=O)C(=O)N2CCCC[C@H]2C(=O)O[C@H]([C@H](C)C[C@@H]2CC[C@@H](OP(C)(C)=O)[C@H](OC)C2)CC(=O)[C@H](C)/C=C(\C)[C@@H](O)[C@@H](OC)C(=O)[C@H](C)C[C@H](C)/C=C/C=C/C=C/1C [RIDAFOROLIMUS] | > 30 µM (inactive) | > 30 µM (inactive) |  | > 30 µM (inactive) |  |  |  | Kd [15]: > 30 µM (inactive); Kd [5]: 1.26 µM; Kd [16]: > 30 µM (inactive) |
| O=c1[nH]ccc2cc(OC3CCNCC3)ccc12 [SAR-407899 FREE BASE] |  | > 30 µM (inactive) |  | > 30 µM (inactive) | > 30 µM (inactive) | > 30 µM (inactive) |  |  |
| CO[C@H]1C[C@@H]2CC[C@@H](C)[C@@](O)(O2)C(=O)C(=O)N2CCCC[C@H]2C(=O)O[C@H]([C@H](C)C[C@@H]2CC[C@@H](O)[C@H](OC)C2)CC(=O)[C@H](C)/C=C(\C)[C@@H](O)[C@@H](OC)C(=O)[C@H](C)C[C@H](C)/C=C/C=C/C=C/1C [SIROLIMUS] |  |  | > 30 µM (inactive) | > 30 µM (inactive) |  |  |  | Kd [2]: > 30 µM (inactive); Kd [15]: > 30 µM (inactive); Kd [17]: > 30 µM (inactive); Kd [5]: > 30 µM (inactive); Kd [16]: > 30 µM (inactive) |
| CO[C@H]1C[C@@H]2CC[C@@H](C)[C@@](O)(O2)C(=O)C(=O)N2CCCC[C@H]2C(=O)O[C@H]([C@H](C)C[C@@H]2CC[C@@H](OC(=O)C(C)(CO)CO)[C@H](OC)C2)CC(=O)[C@H](C)/C=C(\C)[C@@H](O)[C@@H](OC)C(=O)[C@H](C)C[C@H](C)/C=C/C=C/C=C/1C [TEMSIROLIMUS] | > 30 µM (inactive) | > 30 µM (inactive) |  | > 30 µM (inactive) |  |  | > 30 µM (inactive) | Kd [15]: > 30 µM (inactive); Kd [17]: > 30 µM (inactive); Kd [16]: > 30 µM (inactive) |
| Cc1cc(Nc2ncnc3ccc(NC4=NC(C)(C)CO4)cc23)ccc1Oc1ccn2ncnc2c1 [TUCATINIB] |  |  | > 30 µM (inactive) | > 30 µM (inactive) |  |  | > 30 µM (inactive) | Kd [12]: > 30 µM (inactive) |

The next lines start with results.

| Kd [1] | Kd [6] | Kd [7] | Kd [8] | Kd [9] | Kd [11] | Kd [13] | Compound | further results |
| --- | --- | --- | --- | --- | --- | --- | --- | --- |
|  |  | > 30 µM (inactive) |  |  | > 30 µM (inactive) | > 30 µM (inactive) | CN(C[C@@H]1COCCO1)S(=O)(=O)Nc1ccc2ccc3ncc(-c4cnn(C)c4)cc3c(=O)c2c1 [MK-2461] |  |
| > 30 µM (inactive) |  | 0.067 µM (active) |  |  | 0.075 µM |  | Cc1nc(Nc2n[nH]c3c2CN(C(=O)N[C@H](CN(C)C)c2ccccc2)C3(C)C)c2sccc2n1 [PF-03758309] | Kd [3]: > 30 µM (inactive) |
|  |  |  |  | > 30 µM (inactive) | > 30 µM (inactive) |  | C[C@@H](N)c1ccc(C(=O)Nc2ccnc3[nH]ccc23)cc1 [Y-39983] |  |
